How the values were obtained:
[1] = tested on: microorganisms (e.g., bacteria and fungi); assay: Anti-microbial effectiveness (AME) test (USP, EP-B, EP-A criteria); type: cell-based; conditions: initial screening, octavalent HPV formulation with MAA, stored one week at 2-8° C. before test
Procedure: The effectiveness of various preservatives in candidate HPV vaccine formulations was evaluated using an antimicrobial test (anti-microbial effectiveness (AME) test). AME testing was used to determine the ability of a preservative to reduce or eliminate microbes that may be introduced into the vial following product withdrawal. […] Briefly, the AME test comprises the EPA, EPB and USP criteria, which consist of inoculating 10^5-10^6 CFU/mL microorganisms (e.g., bacteria and fungi) per container at time zero, and evaluating the log reduction over time (Meyer et al., supra).
Thimerosal was also included as a reference.
All samples contained 562.5 mcg/mL MAA, 0.32 M NaCl, 10 mM His, 0.01% polysorbate-80 (PS-80), pH 6.2. Formulations containing chlorobutanol and propylparaben were tested with and without the addition of 120 mcg/mL ISCOMATRIX®.
Preservatives were added to octavalent HPV formulations comprising 8 types of HPV VLPs, as described in EXAMPLE 1, and were stored for one week at 2-8° C. prior to AME testing.
Several HPV vaccine formulations with various dose and combinations of preservatives, in the presence or absence of IMX adjuvant, were tested.
Each type of HPV VLP aqueous bulk was absorbed on MAA separately with a protein-to-adjuvant ratio of 0.71 to form the monovalent vaccines in 0.32 M NaCl, 10 mM Histidine (pH 6.2), 0.01% (w/v) PS-80. […]

HPV Type 18 VLPs = HPV Type 18 VLPs (Human papillomavirus type 18, UniProt P06794); type: binding; conditions: HPV18 VLPs, 2 months at 2-8° C., n=2, Biacore
Procedure: The in vitro antigenicity of HPV vaccine formulations comprising HPV18 VLPs and different preservatives was evaluated using a neutralization antibody binding assay (Biacore, Surface Plasmon Resonance). The analysis for antigen bioactivity was determined using the Biacore 2000 (VPR 332) and Biacore 3000 (VPR 696) (Biacore, Inc., Piscataway, N.J.).
Samples were incubated for 2 months at 2-8° C. prior to sample treatment by aluminum dissolution, followed by the final Biacore analysis.

HPV18 VLPs = HPV18 VLPs (Human papillomavirus type 18, UniProt P06794); type: physicochemical, HPV; conditions: data not shown
Procedure: Differential Scanning Calorimetry (DSC) was used to evaluate the impact of preservatives on protein structural and thermal stability. The analysis for antigen thermal stability was determined using a VP-Capillary DSC Platform (MicroCal, LLC, Northampton, Mass.). A detailed description of the conditions utilized is disclosed in Ionescu et al. (2007) (J. Pharm. Sci. 97(4): 1414-1426 (2008)).
The DSC evaluation was carried out in the presence of various preservatives with varied concentrations.

Sequence of HPV18 VLPs (P06794 whole entry): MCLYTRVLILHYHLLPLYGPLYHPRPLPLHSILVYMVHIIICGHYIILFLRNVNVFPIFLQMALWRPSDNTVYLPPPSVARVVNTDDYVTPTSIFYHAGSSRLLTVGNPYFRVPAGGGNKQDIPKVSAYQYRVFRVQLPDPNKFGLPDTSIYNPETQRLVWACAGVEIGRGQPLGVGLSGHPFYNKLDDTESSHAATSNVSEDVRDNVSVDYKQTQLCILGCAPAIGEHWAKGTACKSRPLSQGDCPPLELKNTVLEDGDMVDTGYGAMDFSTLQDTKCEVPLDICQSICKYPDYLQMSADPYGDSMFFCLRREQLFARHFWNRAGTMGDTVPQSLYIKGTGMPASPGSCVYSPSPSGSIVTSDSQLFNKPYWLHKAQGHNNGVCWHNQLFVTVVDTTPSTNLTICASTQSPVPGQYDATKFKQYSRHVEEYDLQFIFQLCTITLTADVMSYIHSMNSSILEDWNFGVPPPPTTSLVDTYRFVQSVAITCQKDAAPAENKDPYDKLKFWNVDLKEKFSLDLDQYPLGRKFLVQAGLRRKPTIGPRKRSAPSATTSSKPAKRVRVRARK
Sequence of HPV Type 18 VLPs (P06794 whole entry): as above

Row | Compound | AME test criteria passed (USP, EP-B, EP-A) [1] | average relative in vitro antigenicity (HPV Type 18 VLPs) | impact on the thermal stability of HPV type 18 (DSC) (HPV18 VLPs)
1 | OCCOc1ccccc1 [2-phenoxyethanol] | did not pass EP-B or EP-A |  | 
2 | C[CH2][Hg][S]c1ccccc1C(=O)[O-].[Na+] [thimerosal] |  | 80% | greatest impact

Reference: patent publication US7709010B2, “Papillomavirus vaccine compositions” (Merck Sharp & Dohme Corp., priority 2007, dated 2010)
